Read-outs that look alike come from different tables or passages of the source. *1 amine or outer side, *2 acyl side, *3 side chain or, on linkers, in order; H or OH if unused. Where a SMILES comes first, the peptide text is derived from it. Bridges are numbered along the chain shown (N, C = ends). [ ]: non-standard residue; d: D form. The star is where a group is joined. hPhe(3,5-F2-4-CF3) = N[C@@H](CCc1cc(F)c(C(F)(F)F)c(F)c1)C(=O)O; hPhe(3-Cl-4-CF3) = N[C@@H](CCc1ccc(C(F)(F)F)c(Cl)c1)C(=O)O; NPrPhe(4-CF3) = CCCN[C@@H](Cc1ccc(C(F)(F)F)cc1)C(=O)O; Pro(4-spirocPr) = O=C(O)[C@@H]1CC2(CC2)CN1; X16 = O=C([C@@H](N[*:1])C1CC(F)(F)C1)[*:2]; NMeGly(cPent) = CN[C@H](C(=O)O)C1CCCC1; NMeD = CN[C@@H](CC(=O)O)C(=O)O; NMeL = CN[C@@H](CC(C)C)C(=O)O; Morpholide = C1CN(*)CCO1; Ac5c = NC1(C(=O)O)CCCC1; Aze = O=C(O)[C@@H]1CCN1; Sar = CNCC(=O)O
Columns and labels:
[1] = test system: human lung cancer strain NCI-H441; assay type: cell-based
In short: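 Proliferation was scored by […] measured after the reagent was added to cultures kept at 37°C in 5% carbon dioxide.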

[2] = biological target: HRAS wild-type protein (Homo sapiens, UniProt P01112); experiment: Binding to HRAS by surface plasmon resonance (SPR), KD and KD ratio to KRAS
In short: (§1)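 Compound binding is evaluated by SPR single-cycle kinetics, with concentrations added intermittently from low to high for 75 s each. Target surfaces carry GDP-loaded biotinylated Avi-RAS at about 100–300 RU, regenerated after each cycle; temperature 30°C. A 1:1 binding model gives KD.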

[3] = biological target: GDP-bound NRAS wild-type protein (Homo sapiens, UniProt P01111); experiment: Binding to NRAS by surface plasmon resonance (SPR), KD and KD ratio to KRAS
In short: as §1

[4] = ratio of KD for HRAS wild-type protein to KD for KRAS
[5] = ratio of KD for GDP-bound NRAS wild-type protein to KD for KRAS
[6] = ratio of the KD value with respect to HRAS wild-type protein to the KD value with respect to KRAS
[7] = ratio of the KD value with respect to GDP-bound NRAS wild-type protein to the KD value with respect to KRAS

Sequence of HRAS wild-type protein (P01112 whole entry): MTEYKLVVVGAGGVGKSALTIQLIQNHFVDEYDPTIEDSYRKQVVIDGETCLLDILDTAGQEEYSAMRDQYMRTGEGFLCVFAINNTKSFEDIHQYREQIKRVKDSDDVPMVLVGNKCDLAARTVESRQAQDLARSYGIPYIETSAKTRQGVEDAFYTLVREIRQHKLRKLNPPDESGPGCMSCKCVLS
Sequence of GDP-bound NRAS wild-type protein (P01111 whole entry): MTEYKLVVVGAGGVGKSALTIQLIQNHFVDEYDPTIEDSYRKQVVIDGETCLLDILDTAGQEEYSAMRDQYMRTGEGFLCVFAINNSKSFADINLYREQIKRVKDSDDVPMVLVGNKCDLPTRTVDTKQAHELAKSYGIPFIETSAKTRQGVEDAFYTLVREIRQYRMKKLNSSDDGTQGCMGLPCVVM

| Structure (SMILES) | IC50 [1] [µM] | IC50 ([1]; NCI-H441 cells, 4 days, CellTiter-Glo, read-out: NCl-H441 IC50) [µM] | HRAS /KRAS [2, 4] | NRAS /KRAS [3, 5] | HRAS /KRAS [2, 6] | NRAS /KRAS [3, 7] | HRAS /KRAS ([2]; ratio of KD value for HRAS wild-type protein to KD value for KRAS (SPR)) | NRAS /KRAS ([3]; ratio of KD value for GDP-bound NRAS wild-type protein to KD value for KRAS (SPR)) |
| --- | --- | --- | --- | --- | --- | --- | --- | --- |
| CCOC[C@H]1C(=O)N[C@@H]([C@@H](C)CC)C(=O)N(C)CC(=O)N(C)[C@H]2C/C=C\CCN(C2=O)[C@@H](Cc2ccc(C)c(F)c2)C(=O)N(C)CC(=O)N[C@@H](CCc2ccc(C(F)(F)F)c(OC)c2)C(=O)N2C[C@@H](C)C[C@H]2C(=O)NC2(CC(C)(C)C2)C(=O)N(C)[C@@H](C2CCCC2)C(=O)N(C)[C@H](C(=O)N(C)CC)CC(=O)N1C [PP2698] | – | 0.0304 | A (a compound having 10 or more and less than 20 is denoted as A) | A (a compound having 10 or more and less than 20 is denoted as A) | – | – | – | – |
| CCCN1C(=O)CN(C)C(=O)CNC(=O)[C@H]([C@@H](C)CC)NC(=O)[C@H](CC(C)C)N(C)C(=O)C[C@@H](C(=O)N2CCOCC2)N(C)C(=O)[C@H](C2CCCC2)N(C)C(=O)C2(CCCC2)NC(=O)[C@@H]2CCCN2C(=O)[C@H](CCc2ccc(C(F)(F)F)c(Cl)c2)NC(=O)CN(C)C(=O)[C@@H]1Cc1ccc(C(F)(F)F)cc1 [PP0155] ([NMeL]IG[Sar][NPrPhe(4-CF3)][Sar][hPhe(3-Cl-4-CF3)]P[Ac5c][NMeGly(cPent)][NMeD]-Morpholide; lactam N-11) | 0.0028 | – | C (A compound having a KD ratio of 0.1 or more and less than 3 is denoted as C) | B (a compound having 3 or more and less than 10 is denoted as B) | – | – | – | – |
| CCCN(C)C(=O)[C@@H]1CC(=O)N(C)[C@@H](CC(C)C)C(=O)N[C@@H](C2CCOCC2)C(=O)N(C)CC(=O)N(C)[C@H]2C/C=C\CCN(C2=O)[C@@H](Cc2ccc(C(F)(F)F)cc2)C(=O)N(C)CC(=O)N[C@@H](CCc2cc(F)c(C(F)(F)F)c(F)c2)C(=O)N2C[C@H](OCC)C[C@H]2C(=O)NC2(CC(C)(C)C2)C(=O)N(C)[C@@H](C2CCCC2)C(=O)N1C [PP1923] | 0.068 | – | – | – | A (a compound having 10 or more and less than 20 is denoted as A) | A (a compound having 10 or more and less than 20 is denoted as A) | – | – |
| CCCN1C(=O)CN(C)C(=O)[C@@H]2CCN2C(=O)[C@H](C2CC(F)(F)C2)NC(=O)[C@H](CC(C)C)N(C)C(=O)C[C@@H](C(=O)N2CCOCC2)N(C)C(=O)[C@H](C2CCCC2)N(C)C(=O)C2(CCCC2)NC(=O)[C@@H]2CCCN2C(=O)[C@H](CCc2cc(F)c(C(F)(F)F)c(F)c2)NC(=O)CN(C)C(=O)[C@@H]1Cc1ccc(C(F)(F)F)cc1 [PP0786] ([NMeL][X16][Aze][Sar][NPrPhe(4-CF3)][Sar][hPhe(3,5-F2-4-CF3)]P[Ac5c][NMeGly(cPent)][NMeD]-Morpholide; lactam N-11) | 0.0448 | – | B (a compound having 3 or more and less than 10 is denoted as B) | B (a compound having 3 or more and less than 10 is denoted as B) | – | – | – | – |

More lines, main results first:

| IC50 [1] [µM] | Structure (SMILES) | IC50 ([1]; NCI-H441 cells, 4 days, CellTiter-Glo, read-out: NCl-H441 IC50) [µM] | HRAS /KRAS [2, 4] | NRAS /KRAS [3, 5] | HRAS /KRAS [2, 6] | NRAS /KRAS [3, 7] | HRAS /KRAS ([2]; ratio of KD value for HRAS wild-type protein to KD value for KRAS (SPR)) | NRAS /KRAS ([3]; ratio of KD value for GDP-bound NRAS wild-type protein to KD value for KRAS (SPR)) |
| --- | --- | --- | --- | --- | --- | --- | --- | --- |
| 0.0093 | C#CC[C@H]1C(=O)N[C@@H]([C@@H](C)CC)C(=O)N(C)CC(=O)N(C)[C@H]2C/C=C\CCN(C2=O)[C@@H](Cc2ccc(C(F)(F)F)cc2)C(=O)N(C)CC(=O)N[C@@H](CCc2ccc(C(F)(F)F)c(OC)c2)C(=O)N2C[C@H](OCC)C[C@H]2C(=O)NC2(CC(C)(C)C2)C(=O)N(C)[C@@H](C2CCCC2)C(=O)N(C)[C@H](C(=O)N(C)CCC)CC(=O)N1C [PP2053] | – | – | – | A (a compound having 10 or more and less than 20 is denoted as A) | A (a compound having 10 or more and less than 20 is denoted as A) | – | – |
| 0.038 | CC[C@H](C)[C@@H]1NC(=O)[C@H](CC2CC2)N(C)C(=O)C[C@@H](C(=O)N(C)C)N(C)C(=O)[C@H](C2CCCC2)N(C)C(=O)C2(CC(C)(C)C2)NC(=O)[C@@H]2C[C@@H](C(F)(F)F)CN2C(=O)[C@H](CCc2cc(F)c(C(F)(F)F)c(F)c2)NC(=O)CN(C)C(=O)[C@H](Cc2ccc(C(F)(F)F)cc2)N2CC/C=C\C[C@@H](C2=O)N(C)C(=O)CN(C)C1=O [PP1504] | – | – | – | – | – | A (a compound having 10 or more and less than 20 is denoted as A) | A (a compound having 10 or more and less than 20 is denoted as A) |
| 0.0046 | CCCN1C(=O)CN(C)C(=O)CN(C)C(=O)[C@H]([C@@H](C)CC)NC(=O)[C@H](CC(C)C)N(C)C(=O)C[C@@H](C(=O)N2CCOCC2)N(C)C(=O)[C@H](C2CCCC2)N(C)C(=O)C2(CCCC2)NC(=O)[C@@H]2CC3(CC3)CN2C(=O)[C@H](CCc2ccc(C(F)(F)F)c(Cl)c2)NC(=O)CN(C)C(=O)[C@@H]1Cc1ccc(C(F)(F)F)cc1 [PP0261] ([NMeL]I[Sar][Sar][NPrPhe(4-CF3)][Sar][hPhe(3-Cl-4-CF3)][Pro(4-spirocPr)][Ac5c][NMeGly(cPent)][NMeD]-Morpholide; lactam N-11) | – | C (A compound having a KD ratio of 0.1 or more and less than 3 is denoted as C) | B (a compound having 3 or more and less than 10 is denoted as B) | – | – | – | – |

From patent EP4603105A1, “PHARMACEUTICAL COMPOSITION CONTAINING CYCLIC COMPOUND HAVING SELECTIVE KRAS INHIBITORY EFFECT AGAINST HRAS AND NRAS” (CHUGAI SEIYAKU KABUSHIKI KAISHA, priority 2022, dated 2024)
